From patent US20060079453A1, “Hla binding peptides and their uses” (priority 2002, published 2006)
pIC50: −log10 of the molar value. Where two headings read alike, the source gives them in different places. No end group written: not given here.

Experiments:
Test in all cases: biochemical
Assay type in all cases: binding
HLA-DR DRB1*0301 (DR3) = HLA-DR DRB1*0301 (DR3) (Homo sapiens, UniProt P01903+P01911, A100K/A102G/A103R/A169T/F55Y/I96L/K41T/L162R/M171V/P40S/Q125H/Q178H/Q39Y/R42S/S66N/T106N/T262R/W38E/Y61H)
HLA-DR DRB1*0401 (DR4) = HLA-DR DRB1*0401 (DR4) (Homo sapiens, UniProt P01903+P01911, A100K/A169T/F76Y/I96L/K127E/L162R/M171V/N62H/P40V/Q125Y/R42H/S133A/S149N/S66Y/V115G/V209L/W38E)
HLA-DR DRB1*0802 (DR8) = HLA-DR DRB1*0802 (DR8) (Homo sapiens, UniProt P01903+P01911, A100R/A103L/A169T/F76Y/H45Y/I96F/K41T/L162R/M171V/P40S/Q125H/Q178H/Q39Y/Q99D/R218S/R42G/S66Y/V115G/W38E)
HLA-DR DRB1*0901 (DR9) = HLA-DR DRB1*0901 (DR9) (Homo sapiens, UniProt P01903+P01911, A100R/A103E/D57H/D86V/F55Y/F60I/F76Y/I96F/K127E/L162R/M171V/P40D/Q125H/Q99R/R33Q/R42F/S133A/S66N/T210M/V115G/W38K/Y107V/Y59G/Y89S)
HLA-DR DRB1*1101 (DR11) = HLA-DR DRB1*1101 (DR11) (Homo sapiens, UniProt P01903+P01911, A100R/A169T/A87E/I96F/K41T/L162R/M171V/P40S/Q125H/Q178H/Q39Y/Q99D/R42S/S66Y/T262R/V115G/W38E); conditions: DRB1 *1101
HLA-DR DRB1*1302 (DR13) = HLA-DR DRB1*1302 (DR13) (Homo sapiens, UniProt P01903+P01911, A100E/A169T/K41T/L162R/M171V/P40S/Q125H/Q178H/Q39Y/Q99D/R42S/S66N/T262R/V115G/W38E/Y61H)
HLA-DR DRB1*1501 (DR15) = HLA-DR DRB1*1501 (DR15) (Homo sapiens, UniProt P01903+P01911); conditions: DRBI *1501
HLA-DR DRB4*0101 (DR53) = HLA-DR DRB4*0101 (DR53) (Homo sapiens, UniProt P01903+P13762, G164S)
HLA-DR DRB5*0101 (DR51) = HLA-DR DRB5*0101 (DR51) (Homo sapiens, UniProt P01903+Q30154)
HLA-DR DRB1*0701 (DR7) = HLA-DR DRB1*0701 (DR7) (Homo sapiens, UniProt P01903+P01911, A100R/A102G/A103Q/D57E/D86V/E43K/F76Y/K127E/L162R/M171V/P40G/Q125H/Q99D/R33Q/R42Y/R54Q/S133A/S66F/T210M/V115G/Y107V/Y59L/Y89S)
HLA-DR DRB1*0101 (DR1) = HLA-DR DRB1*0101 (DR1) (Homo sapiens, UniProt P01903+P01911, A100R/D57E/F55L/F60I/F76Y/I96L/L162R/M171V/P40L/Q125E/R42F/V115G/Y59C)
HLA-DR DRB3*0101 (DR52) = HLA-DR DRB3*0101 (DR52) (Homo sapiens, UniProt P01903+P79483)

HLA-DR DRB1*1302 (DR13), sequence (P01903 26-254 limits assumed, other chains not shown): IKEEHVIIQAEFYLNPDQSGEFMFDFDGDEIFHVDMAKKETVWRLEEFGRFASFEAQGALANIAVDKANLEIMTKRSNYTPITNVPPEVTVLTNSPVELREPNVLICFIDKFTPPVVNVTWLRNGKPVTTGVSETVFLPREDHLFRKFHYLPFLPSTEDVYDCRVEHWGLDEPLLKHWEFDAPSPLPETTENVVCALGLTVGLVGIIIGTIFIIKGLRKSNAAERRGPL
HLA-DR DRB1*1101 (DR11), sequence (P01903 26-254 limits assumed, other chains not shown): as above
HLA-DR DRB1*0301 (DR3), sequence (P01903 26-254 limits assumed, other chains not shown): as above

Compound	pIC50 (HLA-DR DRB1*0301 (DR3))	pIC50 (HLA-DR DRB1*0401 (DR4); DRB1 *0401)	pIC50 (HLA-DR DRB1*0802 (DR8))	pIC50 (HLA-DR DRB1*0901 (DR9); DRB1 *0901)	pIC50 (HLA-DR DRB1*1501 (DR15))	pIC50 (HLA-DR DRB4*0101 (DR53); DRB4 *0101)	pIC50 (HLA-DR DRB5*0101 (DR51); DRB5 *0101)	pIC50 (HLA-DR DRB1*0701 (DR7); DRB1 *0701)	other results
IFAIFRQDSSSTGWN	6.40	8.02	5.33	6.01	6.69	7.52	3.96	–	pIC50 (HLA-DR DRB1*1101 (DR11)): 5.34; pIC50 (HLA-DR DRB1*1302 (DR13); DRBI *1302): 6.11
CC[C@H](C)[C@H](NC(=O)[C@H](CCC(=O)O)NC(=O)[C@H](CC(N)=O)NC(=O)CNC(=O)[C@H](CC(=O)O)NC(=O)[C@H](CCC(=O)O)NC(=O)[C@H](CC(N)=O)NC(=O)[C@@H](NC(=O)[C@@H](NC(=O)[C@H](CO)NC(=O)[C@@H](NC(=O)[C@@H](N)Cc1ccc(O)cc1)[C@@H](C)CC)[C@@H](C)CC)[C@@H](C)CC)C(=O)N[C@@H](Cc1ccccc1)C(=O)N[C@@H](CC(N)=O)C(=O)N[C@H](C(=O)O)[C@@H](C)O	6.40	6.20	< 3.91	4.08	5.57	5.43	4.14	4.62	pIC50 (HLA-DR DRB1*1101 (DR11)): < 4.72; pIC50 (HLA-DR DRB1*1302 (DR13); DRBI *1302): 6.46
CAWTIVRVEILRNFY	5.45	6.80	4.36	6.12	–	6.82	–	6.13	pIC50 (HLA-DR DRB1*0101 (DR1); DRB1 *0101): 7.18
CC[C@H](C)[C@H](N)C(=O)N[C@@H](CO)C(=O)N[C@H](C(=O)N[C@H](C(=O)N[C@@H](CC(N)=O)C(=O)N[C@@H](CCC(=O)O)C(=O)N[C@@H](CC(=O)O)C(=O)NCC(=O)N[C@@H](CC(N)=O)C(=O)N[C@@H](CCC(=O)O)C(=O)N[C@H](C(=O)N[C@@H](Cc1ccccc1)C(=O)N[C@@H](CC(N)=O)C(=O)N[C@H](C(=O)N[C@@H](CO)C(=O)O)[C@@H](C)O)[C@@H](C)CC)[C@@H](C)CC)[C@@H](C)CC	6.25	< 4.89	< 3.91	< 4.28	–	–	–	< 4.64	–
FYNQHLTGSHLVEAL	–	–	–	–	–	–	–	–	pIC50 (HLA-DR DRB1*0101 (DR1); read-out: DRB1 *0101): 8.04; pIC50 (HLA-DR DRB1*0301 (DR3); read-out: DRB1 *0301): 4.17; pIC50 (HLA-DR DRB1*0401 (DR4); read-out: DRB1 *0401): 6.07; pIC50 (HLA-DR DRB1*0701 (DR7); read-out: DRB1 *0701): 7.82; pIC50 (HLA-DR DRB1*0802 (DR8); read-out: DRB1 *0802): < 4.26; pIC50 (HLA-DR DRB1*0901 (DR9); read-out: DRB1 *0901): 4.38
LMAFTAAVTS	< 4.13	6.49	< 4.39	6.80	5.71	4.93	< 4.90	6.62	pIC50 (HLA-DR DRB1*1101 (DR11)): < 4.63; pIC50 (HLA-DR DRB1*1302 (DR13); DRBI *1302): < 5.61
LAHYDVLLSYPNK	–	–	–	–	–	–	–	–	pIC50 (HLA-DR DRB1*0101 (DR1); read-out: DRB1 *0101): 7.10; pIC50 (HLA-DR DRB1*0301 (DR3); read-out: DRB1 *0301): 4.43; pIC50 (HLA-DR DRB1*0701 (DR7); read-out: DRB1 *0701): 5.44; pIC50 (HLA-DR DRB1*0802 (DR8); read-out: DRB1 *0802): 6.38; pIC50 (HLA-DR DRB1*0901 (DR9); read-out: DRB1 *0901): 6.00
CC(C)C[C@H](NC(=O)[C@@H]1CCCN1C(=O)[C@H](Cc1c[nH]cn1)NC(=O)[C@@H]1CCCN1C(=O)[C@H](Cc1ccccc1)NC(=O)[C@H](CO)NC(=O)[C@H](Cc1c[nH]cn1)NC(=O)[C@H](CO)NC(=O)[C@@H](NC(=O)[C@H](CCC(N)=O)NC(=O)[C@H](Cc1ccccc1)NC(=O)[C@@H](NC(=O)[C@H](CCC(N)=O)NC(=O)CN)C(C)C)C(C)C)C(=O)N[C@@H](Cc1ccc(O)cc1)C(=O)O	4.35	8.09	6.26	7.48	5.66	–	6.89	7.57	pIC50 (HLA-DR DRB1*1302 (DR13); DRBI *1302): 6.84
HSLFHPEDTGQVFQV	–	–	–	–	–	–	–	–	pIC50 (HLA-DR DRB3*0101 (DR52); read-out: DRB3 *0101): 6.26
CC[C@H](C)[C@H](NC(=O)[C@@H](N)CCC(N)=O)C(=O)N[C@@H](Cc1ccc(O)cc1)C(=O)N[C@H](C(=O)N[C@@H](C)C(=O)N[C@@H](C)C(=O)N[C@@H](Cc1ccccc1)C(=O)N[C@H](C(=O)N[C@H](C(=O)N[C@@H](CCC(N)=O)C(=O)N[C@@H](C)C(=O)N[C@@H](C)C(=O)N[C@@H](C)C(=O)N[C@@H](CCC(=O)O)C(=O)N[C@H](C(=O)O)[C@@H](C)O)C(C)C)[C@@H](C)O)C(C)C	4.57	8.80	6.99	7.19	6.60	7.30	6.67	6.49	pIC50 (HLA-DR DRB1*0101 (DR1); DRB1 *0101): 8.80; pIC50 (HLA-DR DRB1*1101 (DR11)): 7.47
CC[C@H](C)[C@H](NC(=O)[C@H](CS)NC(=O)[C@H](Cc1c[nH]cn1)NC(=O)[C@H](C)NC(=O)[C@H](C)NC(=O)[C@@H](NC(=O)[C@H](CC(C)C)NC(=O)[C@@H](NC(=O)[C@H](Cc1c[nH]c2ccccc12)NC(=O)[C@H](CCC(N)=O)NC(=O)[C@@H]1CCCN1C(=O)[C@@H](N)Cc1c[nH]cn1)C(C)C)[C@@H](C)O)C(=O)N[C@@H](CCCNC(=N)N)C(=O)N[C@@H](CC(N)=O)C(=O)N[C@@H](CCCCN)C(=O)O	5.44	5.79	5.88	6.97	5.19	5.26	7.40	6.55	pIC50 (HLA-DR DRB1*0101 (DR1); DRB1 *0101): 7.89
RQEILDLWVYHTQGF	4.98	5.23	5.56	5.43	6.01	–	< 4.69	5.52	pIC50 (HLA-DR DRB1*1101 (DR11)): 4.95
LGFFPDHQLDPAFRAN	–	–	–	–	–	–	–	–	pIC50 (HLA-DR DRB3*0101 (DR52); read-out: DRB3 *0101): 5.84
GAAVVHEIVRSFGTL	–	–	–	–	–	–	–	–	pIC50 (HLA-DR DRB3*0101 (DR52)): 6.10
ALQAQKEAISPPDAA	–	–	–	–	–	–	–	–	pIC50 (HLA-DR DRB3*0101 (DR52); read-out: DRB3 *0101): < 4.04
DKAVSGLRSLTTLLR	5.36	5.99	4.79	< 4.10	7.22	5.70	6.98	–	pIC50 (HLA-DR DRB1*0101 (DR1); DRB1 *0101): 7.89; pIC50 (HLA-DR DRB1*1101 (DR11)): 7.28; pIC50 (HLA-DR DRB1*1302 (DR13); DRBI *1302): 6.73
SHDLMLLRLSEPAKI	–	–	–	–	–	–	–	–	pIC50 (HLA-DR DRB1*1302 (DR13); read-out: DRBI *1302): 8.74; pIC50 (HLA-DR DRB3*0101 (DR52); read-out: DRB3 *0101): 5.27; pIC50 (HLA-DR DRB4*0101 (DR53); read-out: DRB4 *0101): 8.00; pIC50 (HLA-DR DRB5*0101 (DR51); read-out: DRB5 *0101): 5.69
RGGMVFELANSIYLP	–	–	–	–	–	–	–	–	pIC50 (HLA-DR DRB1*0101 (DR1); read-out: DRB1 *0101): 8.00; pIC50 (HLA-DR DRB1*0301 (DR3); read-out: DRB1 *0301): 4.43; pIC50 (HLA-DR DRB1*0701 (DR7); read-out: DRB1 *0701): 7.39; pIC50 (HLA-DR DRB1*0802 (DR8); read-out: DRB1 *0802): 5.06; pIC50 (HLA-DR DRB1*0901 (DR9); read-out: DRB1 *0901): 7.48
LWQLNGRLEYCLKDR	–	–	–	–	–	–	–	–	pIC50 (HLA-DR DRB3*0101 (DR52)): 4.54
YKTIAYDEEARR	–	–	–	–	–	–	≤ 3.70	–	pIC50 (HLA-DR DRB3*0101 (DR52)): < 4.30
SHDLMLLRLSEPAEL	–	–	–	–	–	–	–	–	pIC50 (HLA-DR DRB1*0101 (DR1); read-out: DRB1 *0101): 6.27; pIC50 (HLA-DR DRB1*0301 (DR3); read-out: DRB1 *0301): 5.21; pIC50 (HLA-DR DRB1*0401 (DR4); read-out: DRB1 *0401): 5.39; pIC50 (HLA-DR DRB1*0701 (DR7); read-out: DRB1 *0701): 7.24; pIC50 (HLA-DR DRB1*0802 (DR8); read-out: DRB1 *0802): 5.45; pIC50 (HLA-DR DRB1*0901 (DR9); read-out: DRB1 *0901): 7.19
